Data reported in US9708336B2, “Metallo-beta-lactamase inhibitors” (priority 2014, dated 2017).
Read-outs that look alike come from different tables or passages of the source.

What was measured:
IMP-1 = IMP-1 (Serratia marcescens, UniProt P52699); assay: biochemical; assay type: biochemical; conditions: read-out: IMP-1 IC50
VIM-1 = VIM-1 (Pseudomonas aeruginosa (strain ATCC 15692 / DSM 22644 / CIP 104116 / JCM 14847 / LMG 12228 / 1C / PRS 101 / PAO1), UniProt A0A0F7KYQ8); assay: Enzyme activity: determination of IC50, fluorescence assay with CCF2-FA substrate (VIM-1); assay type: biochemical
[1] = test system: Escherichia coli expressing NDM-1 (CLB30005); assay: Antibiotic potentiation activity: synergistic concentration (MITC95) with imipenem, OD600 growth; assay type: cell-based; conditions: for Escherichia coli MITC95: Escherichia coli expressing NDM-1 (CLB30005), 95% growth inhibition; for Escherichia coli expressing NDM-1 (CLB 30005) MITC95: concentration giving 95% inhibition of bacterial growth
Summary of the method: (§1)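 Steps: colonies grown overnight at 35 °C; resuspended in saline to OD600 0.11–0.15 by strain; diluted 1:100 into 1.1× CAMHB; imipenem then compound added (antibiotic 4 μg/ml in assay); incubated 35 °C for 22–24 h; absorbance measured.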

[2] = test system: Klebsiella pneumoniae expressing VIM-1 (IHMA599644); assay: as above; assay type: cell-based; conditions: for Klebsiella pneumoniae MITC95: Klebsiella pneumoniae expressing VIM-1 (IHMA599644), 95% growth inhibition; for Klebsiella pneumoniae expressing VIM-1 (IHMA 599644) MITC95: concentration giving 95% inhibition of bacterial growth
Summary of the method: as §1

[3] = test system: Serratia marcescens expressing IMP-1 (CL5741); assay: as above; assay type: cell-based; conditions: for Serratia marcescens MITC95: Serratia marcescens expressing IMP-1 (CL5741), 95% growth inhibition; for Serratia marcescens expressing IMP-1 (CL5741) MITC95: concentration giving 95% inhibition of bacterial growth
Summary of the method: as §1

NDM-1 = NDM-1 (Klebsiella pneumoniae, UniProt C7C422); assay: biochemical; assay type: biochemical; conditions: read-out: NDM-1 IC50
[4] = IMP-1 enzyme, CCF2-FA fluorescence assay
[5] = VIM-1 enzyme, CCF2-FA fluorescence assay, read-out: VIM-1 IC50
[6] = NDM-1 enzyme, CCF2-FA fluorescence assay
[7] = fluorescence assay with CCF2-FA substrate
[8] = VIM-1 IC50, fluorescence assay with CCF2-FA substrate
[9] = fluorescence assay with CCF2-FA substrate, read-out: VIM-1 IC50

NDM-1, sequence (C7C422 whole entry, looked up, species assumed): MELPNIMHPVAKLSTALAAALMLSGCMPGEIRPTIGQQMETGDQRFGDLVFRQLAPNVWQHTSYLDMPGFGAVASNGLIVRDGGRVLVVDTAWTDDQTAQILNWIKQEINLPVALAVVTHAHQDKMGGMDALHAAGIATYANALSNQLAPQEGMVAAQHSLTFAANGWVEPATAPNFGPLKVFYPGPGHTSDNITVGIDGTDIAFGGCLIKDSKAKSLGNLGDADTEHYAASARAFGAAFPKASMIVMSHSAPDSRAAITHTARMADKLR
IMP-1, sequence (P52699 whole entry, looked up): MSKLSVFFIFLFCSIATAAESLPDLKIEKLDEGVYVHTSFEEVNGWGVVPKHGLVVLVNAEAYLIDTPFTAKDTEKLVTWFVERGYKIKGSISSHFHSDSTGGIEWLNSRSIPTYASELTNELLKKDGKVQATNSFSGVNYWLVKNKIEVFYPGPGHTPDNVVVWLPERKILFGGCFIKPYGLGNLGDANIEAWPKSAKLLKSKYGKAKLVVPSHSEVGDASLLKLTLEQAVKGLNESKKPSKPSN

SMILES: CS(=O)(=O)c1nc2cc(Cl)c(-c3cccc(S(N)(=O)=O)c3-c3nn[nH]n3)cc2[nH]1 [Example 278, 3-(5-chloro-2-(methylsulfonyl)-1H-benzo[d]imidazol-6-yl)-2-(2H-tetrazol-5-yl)benzenesulfonamide]
- IC50 (IMP-1; [4]): 536 nM
- IC50 (VIM-1; [5]): 79.1 nM
- Escherichia coli MITC95 [1]: 3.125 µM
- Klebsiella pneumoniae MITC95 [2]: 100 µM
- Serratia marcescens MITC95 [3]: 37.5 µM
- IC50 (NDM-1; [6]): 8.5 nM

SMILES: Cc1nc(F)ccc1-c1cccc(S(N)(=O)=O)c1-c1nn[nH]n1 [Example 79, 3-(6-fluoro-2-methylpyridin-3-yl)-2-(2H-tetrazol-5-yl)benzenesulfonamide]
- IC50 (IMP-1; [7]): 3970 nM
- IC50 (VIM-1; [8]): 60.2 nM
- Escherichia coli expressing NDM-1 (CLB 30005) MITC95 [1]: 1.563 µM
- Klebsiella pneumoniae expressing VIM-1 (IHMA 599644) MITC95 [2]: 25 µM
- Serratia marcescens expressing IMP-1 (CL5741) MITC95 [3]: 150 µM
- IC50 (NDM-1; [7]): 48.6 nM

SMILES: Cc1ccc(-c2cccc(S(N)(=O)=O)c2-c2nnn[nH]2)nc1 [Example 398, 3-(5-Methylpyridin-2-yl)-2-(1H-tetrazol-5-yl)benzenesulfonamide]
- IC50 (IMP-1; [4]): 1210 nM
- IC50 (VIM-1; [5]): 312 nM
- Escherichia coli MITC95 [1]: 1.563 µM
- Klebsiella pneumoniae MITC95 [2]: 100 µM
- Serratia marcescens MITC95 [3]: 50 µM
- IC50 (NDM-1; [6]): 43 nM

SMILES: C[C@H](O)c1nc(-c2ccc(-c3cccc(S(N)(=O)=O)c3-c3nn[nH]n3)cc2)no1 [Example 251, (S)-4′-(5-(1-hydroxyethyl)-1,2,4-oxadiazol-3-yl)-2-(2H-tetrazol-5-yl)-[1,1′-biphenyl]-3-sulfonamide]
- IC50 (IMP-1; [4]): 42.5 nM
- IC50 (VIM-1; VIM-1 IC50, VIM-1 enzyme, CCF2-FA fluorescence assay): 71.6 nM
- Escherichia coli MITC95 [1]: 0.7813 µM
- Klebsiella pneumoniae MITC95 [2]: 200 µM
- Serratia marcescens MITC95 [3]: 6.25 µM
- IC50 (NDM-1; [6]): 5.85 nM

SMILES: CS(=O)(=O)N1CCC(c2cccc(S(N)(=O)=O)c2-c2nn[nH]n2)CC1 [Example 172, 3-(1-(methylsulfonyl)piperidin-4-yl)-2-(2H-tetrazol-5-yl)benzenesulfonamide]
- IC50 (IMP-1; [7]): 720 nM
- IC50 (VIM-1; [9]): 421 nM
- Escherichia coli expressing NDM-1 (CLB 30005) MITC95 [1]: 4.688 µM
- Klebsiella pneumoniae expressing VIM-1 (IHMA 599644) MITC95 [2]: 100 µM
- Serratia marcescens expressing IMP-1 (CL5741) MITC95 [3]: 18.75 µM
- IC50 (NDM-1; [7]): 16.5 nM

SMILES: NCc1ccc(-c2cccc(S(N)(=O)=O)c2-c2nnn[nH]2)cn1 [Example 306, 3-(6-(aminomethyl)pyridin-3-yl)-2-(1H-tetrazol-5-yl)benzenesulfonamide]
- IC50 (IMP-1; [4]): 3740 nM
- IC50 (VIM-1; [5]): 300 nM
- Escherichia coli MITC95 [1]: 1.172 µM
- Klebsiella pneumoniae MITC95 [2]: 25 µM
- Serratia marcescens MITC95 [3]: 50 µM
- IC50 (NDM-1; [6]): 104 nM

SMILES: COC(=O)c1ccc(-c2ccnc(S(N)(=O)=O)c2-c2nnn[nH]2)cc1 [Example 182, Methyl 4-(2-sulfamoyl-3-(1H-tetrazol-5-yl)pyridin-4-yl)benzoate]
- IC50 (IMP-1; [7]): 348 nM
- IC50 (VIM-1; [8]): 91.4 nM
- Escherichia coli expressing NDM-1 (CLB 30005) MITC95 [1]: 4.688 µM
- Klebsiella pneumoniae expressing VIM-1 (IHMA 599644) MITC95 [2]: 200 µM
- Serratia marcescens expressing IMP-1 (CL5741) MITC95 [3]: 100 µM
- IC50 (NDM-1; [7]): 32.4 nM

SMILES: NS(=O)(=O)c1nccc(-c2ccc(CO)nc2)c1-c1nnn[nH]1 [Example 195, 6-(hydroxymethyl)-3′-(1H-tetrazol-5-yl)-[3,4′-bipyridine]-2′-sulfonamide]
- IC50 (IMP-1; [7]): 2630 nM
- IC50 (VIM-1; [9]): 291 nM
- Escherichia coli expressing NDM-1 (CLB 30005) MITC95 [1]: 0.3906 µM
- Klebsiella pneumoniae expressing VIM-1 (IHMA 599644) MITC95 [2]: 12.5 µM
- Serratia marcescens expressing IMP-1 (CL5741) MITC95 [3]: 50 µM
- IC50 (NDM-1; [7]): 78.5 nM

SMILES: NS(=O)(=O)c1nccc(N2CCC3(CCNCC3)CC2)c1-c1nn[nH]n1 [Example 245, 4-(3,9-diazaspiro[5.5]undecan-3-yl)-3-(2H-tetrazol-5-yl)pyridine-2-sulfonamide]
- IC50 (IMP-1; [4]): 9780 nM
- IC50 (VIM-1; [5]): 460 nM
- Escherichia coli MITC95 [1]: 0.3906 µM
- Klebsiella pneumoniae MITC95 [2]: 12.5 µM
- Serratia marcescens MITC95 [3]: 50 µM
- IC50 (NDM-1; [6]): 266 nM

SMILES: NS(=O)(=O)c1cccc(-c2ccc(C(=O)NCCO)cc2)c1-c1nn[nH]n1 [Example 17, N-(2-hydroxyethyl)-3′-sulfamoyl-2′-(2H-tetrazol-5-yl)biphenyl-4-carboxamide]
- IC50 (IMP-1; [7]): 87.5 nM
- IC50 (VIM-1; [9]): 209 nM
- Escherichia coli expressing NDM-1 (CLB 30005) MITC95 [1]: 0.7813 µM
- Klebsiella pneumoniae expressing VIM-1 (IHMA 599644) MITC95 [2]: 100 µM
- Serratia marcescens expressing IMP-1 (CL5741) MITC95 [3]: 53.13 µM
- IC50 (NDM-1; [7]): 8.57 nM

SMILES: NS(=O)(=O)c1cncc(-c2ccc(CO)cc2)c1-c1nnn[nH]1 [Example 189, 5-(4-(Hydroxymethyl)phenyl)-4-(1H-tetrazol-5-yl)pyridine-3-sulfonamide]
- IC50 (IMP-1; [7]): 704 nM
- IC50 (VIM-1; [8]): 685 nM
- Escherichia coli expressing NDM-1 (CLB 30005) MITC95 [1]: 1.563 µM
- Klebsiella pneumoniae expressing VIM-1 (IHMA 599644) MITC95 [2]: 100 µM
- IC50 (NDM-1; [7]): 23.2 nM

SMILES: NS(=O)(=O)c1ccc(O)cc1-c1nn[nH]n1 [Example 254]
- IC50 (VIM-1; [5]): 20000 nM
- Escherichia coli MITC95 [1]: 3.125 µM
- Klebsiella pneumoniae MITC95 [2]: >200 µM
- Serratia marcescens MITC95 [3]: >200 µM

SMILES: NS(=O)(=O)c1cccc(-c2nccs2)c1-c1nn[nH]n1 [Example 35, 2-(2H-tetrazol-5-yl)-3-(1,3-thiazol-2-yl)benzenesulfonamide]
- IC50 (IMP-1; [7]): 2680 nM
- Escherichia coli expressing NDM-1 (CLB 30005) MITC95 [1]: 1.953 µM
- Klebsiella pneumoniae expressing VIM-1 (IHMA 599644) MITC95 [2]: 100 µM
- Serratia marcescens expressing IMP-1 (CL5741) MITC95 [3]: 50 µM
- IC50 (NDM-1; [7]): 138 nM

SMILES: NS(=O)(=O)c1ccc2ccccc2c1-c1nnn[nH]1 [Example 399, 1-(1H-tetrazol-5-yl)naphthalene-2-sulfonamide]
- IC50 (IMP-1; [4]): 15100 nM
- Escherichia coli MITC95 [1]: 3.906 µM
- Klebsiella pneumoniae MITC95 [2]: >200 µM
- Serratia marcescens MITC95 [3]: >200 µM
- IC50 (NDM-1; [6]): 117 nM

SMILES: NS(=O)(=O)c1cccc(-c2ccccn2)c1-c1nn[nH]n1 [Example 93, 3-pyridin-2-yl-2-(2H-tetrazol-5-yl)benzenesulfonamide]
- IC50 (IMP-1; [7]): 331 nM
- IC50 (VIM-1; [9]): 89.8 nM
- Escherichia coli expressing NDM-1 (CLB 30005) MITC95 [1]: 0.7813 µM
- Klebsiella pneumoniae expressing VIM-1 (IHMA 599644) MITC95 [2]: 25 µM
- IC50 (NDM-1; [7]): 3.17 nM

SMILES: NS(=O)(=O)c1nccc(-c2ccc(C(=O)NC3CCOCC3)cc2)c1-c1nnn[nH]1 [Example 186, 4-(2-Sulfamoyl-3-(1H-tetrazol-5-yl)pyridin-4-yl)-N-(tetrahydro-2H-pyran-4-yl)benzamide]
- IC50 (IMP-1; [7]): 564 nM
- Escherichia coli expressing NDM-1 (CLB 30005) MITC95 [1]: 18.75 µM
- Klebsiella pneumoniae expressing VIM-1 (IHMA 599644) MITC95 [2]: >200 µM
- Serratia marcescens expressing IMP-1 (CL5741) MITC95 [3]: 100 µM
- IC50 (NDM-1; [7]): 97.1 nM

SMILES: NS(=O)(=O)c1cccc(C#CCN2CCC(=O)CC2)c1-c1nn[nH]n1 [Example 146, 3-[3-(4-oxopiperidin-1-yl)prop-1-yn-1-yl]-2-(2H-tetrazol-5-yl)benzenesulfonamide]
- IC50 (IMP-1; [7]): 766 nM
- Escherichia coli expressing NDM-1 (CLB 30005) MITC95 [1]: 1.172 µM
- Klebsiella pneumoniae expressing VIM-1 (IHMA 599644) MITC95 [2]: >200 µM
- Serratia marcescens expressing IMP-1 (CL5741) MITC95 [3]: 50 µM
- IC50 (NDM-1; [7]): 65.5 nM

SMILES: Cn1ccnc1-c1cccc(S(N)(=O)=O)c1-c1nn[nH]n1 [Example 38, 3-(1-methyl-1H-imidazol-2-yl)-2-(2H-tetrazol-5-yl)benzenesulfonamide]
- IC50 (IMP-1; [7]): 2390 nM
- Escherichia coli expressing NDM-1 (CLB 30005) MITC95 [1]: 0.7813 µM
- Klebsiella pneumoniae expressing VIM-1 (IHMA 599644) MITC95 [2]: 200 µM
- Serratia marcescens expressing IMP-1 (CL5741) MITC95 [3]: 25 µM
- IC50 (NDM-1; [7]): 281 nM
